Values quoted from earlier work, collected in patent US12371983B2, “Large-scale carbon-mineralization through oxalatization” (THE CURATORS OF THE UNIVERSITY OF MISSOURI, priority 2021, dated 2025).
Values after ≈ are worked out from the molar mass of the structure shown.

Conditions: at 20° C. and one atmospheric pressure

solubility in water: ~1800 µg/mL (≈ 40.9 mM)
Structure (SMILES): O=C=O [CO2]
